In patent US11643417B2, “Tetrahydrobenzofurodiazepinone compound and pharmaceutical use thereof” (priority 2020, dated 2023) one finds Ki data, which are given here for 23 compounds.

Molecules are shown by their SMILES.

Sequence of human Pim-1 (P11309 whole entry): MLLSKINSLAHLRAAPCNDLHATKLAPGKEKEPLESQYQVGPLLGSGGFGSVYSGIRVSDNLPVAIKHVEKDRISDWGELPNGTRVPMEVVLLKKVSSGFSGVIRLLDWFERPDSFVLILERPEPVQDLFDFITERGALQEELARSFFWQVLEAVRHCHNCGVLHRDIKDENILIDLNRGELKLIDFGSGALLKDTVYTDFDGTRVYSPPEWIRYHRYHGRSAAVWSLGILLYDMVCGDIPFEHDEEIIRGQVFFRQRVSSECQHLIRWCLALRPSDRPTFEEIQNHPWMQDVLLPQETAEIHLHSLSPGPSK

For the first experiment, the target named is human Pim-1 (Homo sapiens (Human), UniProt P11309). Briefly: biochemical. To be noted: Ki converted from IC50; purified human Pim-1, Pim2tide substrate, ADP-Glo; read-out: hPim1 Ki. In kind it is biochemical. As for the experimental part:
The human Pim-1 inhibitory activity of the test compounds was evaluated as follows.
(1) Purification of Human Pim-1
DNA fragment in which a His-Tag sequence and a translation termination sequence are added to the 3′-end of human Pim-1 translation sequence was amplified by PCR (Polymerase Chain Reaction), using human Pim-1 gene-inserted plasmid DNA (Kazusa DNA Laboratory, model number FXC11400) as a template. The amplified DNA fragment was fused with pGEx-6P-1 (GE Healthcare Japan, model number 27-4597-1) digested with BamHI and EcoRI using In-Fusion HD Cloning Kit (Takara Bio, model number 639649). […] The base sequence of Pim-1 cloned into vector was determined by Dye Terminator method using BigDye Terminator v3.1 Cycle Sequencing Kit (Applied Biosystems, model number 4337456). […] Escherichia coli BL21 (DE3) (Merck KGaA, model number 69449-4) transformed with human Pim-1-expressed plasmid DNA was cultured in 2×YT medium (Becton Dickinson, model number 2404020) at 30° C., until the optical concentration at 620 nm (OD620) reached 0.6, and then cultured overnight at 20° C. in the presence of 0.5 mmol/L isopropyl b-D-1-thiogalactopyranoside. After the completion of so the culture, the cells were collected and suspended in Homogenate Buffer (50 mmol/L Tris-HCl (pH 7.5), 500 mmol/L NaCl, 1% Tween20, complete, EDTA-free (Roche, model number 1873580)), and the suspended cells were lysed by passing through a microfluidizer M-110H (Mizuho Kogyo Co., Ltd.). The lysate was centrifuged at 10,100×g for 10 minutes, 4° C., and the supernatant was filtered through MILLEX-HV Filter (0.45 μm) (Millipore, SLHV033RS) to remove the cell residues. The filtrate was loaded onto complete His-Tag Purification Resin (Roche Diagnostics, model number 05 893 682 0.01). The column was washed with Equilibration Buffer-1 (50 mmol/L Tris-HCl (pH 7.5), 500 mmol/L NaCl, 1% Tween 20) containing 5 mmol/L Imidazole, followed by Equilibration Buffer-1 containing 50 mmol/L Imidazole, the human Pim-1 to which GST-Tag derived from pGEx-6P-1 was eluted with Equilibration Buffer-1 containing 150 mmol/L imidazole. […] The protease reaction was carried out by stirring overnight at 4° C., and the human Pim-1 in which the GST-Tag sequence was cleaved was eluted. The eluate was loaded onto a gel filtration column (Superdex-200 […] (GE Healthcare, model number 17-5175-01)) equilibrated with Equilibration Buffer-3 (50 mmol/L Tris-HCl (pH 7.5), 500 mmol/L NaCl, 0.05% Tween20, 0.5 mmol/L EDTA, 2 mmol/L DTT, 10% Glycerol), and eluted. The eluate was used as a human Pim-1 purified fraction.
The protein concentration of the human Pim-1 purified fraction was measured with Pierce 660 nm Protein Assay Reagent (Thermo Fisher Scientific, model number 22660). The purified fraction was rapidly frozen in liquid nitrogen, and then stored at −80° C. The His-Tag-added human Pim-1 was detected by Western blotting using a mouse anti-His monoclonal antibody (WAKO, model number 011-23091).
(2) Evaluation of Human Pim-1 Inhibitory Activity
The calculation of the Pim-1 inhibitory activity of the compound was performed using the following solution according to the protocol attached to ADP-Glo Kinase Assay (cat. V9102, Promega). The purified enzyme of human Pim-1 described above was used.
(i) Preparation of Solution
The kinase buffer solution (50 mmol/L HEPES (pH 7.5), 5 mmol/L MgCl2, 1 mmol/L DTT, 0.05% BSA) was prepared by dissolving HEPES (Jena Bioscience), MgCl2 (Sigma-Aldrich), DTT (Sigma-Aldrich) and BSA (Sigma-Aldrich) in purified water.
The ATP solution (288 μmol/L) was prepared by dissolving 100 mmol/L ATP (Promega) in the kinase buffer solution.
Consider `O=C1NCCN(CC[C@H]2CO[C@H](CO)CO2)c2c1oc1ccc(C(F)(F)F)cc21` [Example 41], for which the inhibition constant Ki is 0.933 nM.
As to `O=C1NCCN(CCC2CCCCO2)c2c1oc1ccc(C(F)(F)F)cc21` (centres unmarked) [Example 40], the inhibition constant (Ki) is 0.969 nM.
On to `O=C1NCCN(CCC2CCC(O)(C3(O)CC3)CC2)c2c1oc1ccc(C(F)(F)F)cc21` (centres unmarked) [Example 111], for which the Ki was found to be 0.011 nM.
Still for that read-out and setting: to `O=C1NCCN(CCC2COCC(CO)O2)c2c1oc1ccc(C(F)(F)F)cc21` (racemic) [Example 133] belongs 1.58 nM; to `O=C1NCCN(CC[C@@H]2CO[C@H](CO)CO2)c2c1oc1ccc(C(F)(F)F)cc21` [Example 72], 2.29 nM.
The same measure, in the same setting: to `O=C1NCCN(CCC2CCC(C3(O)CC3)CC2)c2c1oc1ccc(C(F)(F)F)cc21` (centres unmarked) [Example 110] belongs 0.133 nM.
For the compound `CC1(O)CCC(C(F)(F)CN2CCNC(=O)c3oc4ccc(C(F)(F)F)cc4c32)CC1` (single isomer, unassigned) [Example 147], the inhibition constant (Ki) turned out to be 0.213 nM.
Regarding `O=C1NCCN(CCC2CC3CCC(C2)O3)c2c1oc1ccc(C(F)(F)F)cc21` (centres unmarked) [Example 81], the inhibition constant (Ki) stood at 1.11 nM.
For `CC1(O)CCOC(C(F)(F)CN2CCNC(=O)c3oc4ccc(C(F)(F)F)cc4c32)C1` (centres unmarked) [Example 59, 1-(2,2-difluoro-2-(4-hydroxy-4-methyltetrahydro-2H-pyran-2-yl)ethyl)-9-(trifluoromethyl)-1,2,3,4-tetrahydro-5H-benzofuro[3,2-e][1,4]diazepin-5-one], the inhibition constant Ki was 0.107 nM.
Still for that read-out and setting: to `O=C1NCCN(CC(F)(F)[C@@H]2CO[C@H](CO)CO2)c2c1oc1ccc(C(F)(F)F)cc21` [Example 78] belongs 0.227 nM; to `CC1(O)CCOC(C(F)(F)CN2CCNC(=O)c3oc4ccc(C(F)(F)F)cc4c32)C1` (centres unmarked) [Example 67, 1-(2,2-difluoro-2-(4-hydroxy-4-methyltetrahydro-2H-pyran-2-yl)ethyl)-9-(trifluoromethyl)-1,2,3,4-tetrahydro-5H-benzofuro[3,2-e][1,4]diazepin-5-one], 0.242 nM; to `CS(=O)(=O)C[C@H]1CO[C@@H](CCN2CCNC(=O)c3oc4ccc(C(F)(F)F)cc4c32)CO1` (racemic) [Example 141], 10.3 nM.
`O=C1NCCN(CCC2CCC(CO)CC2)c2c1oc1ccc(C(F)(F)F)cc21` (centres unmarked) [Example 97]: the inhibition constant (Ki) turned out to be 0.107 nM.
Regarding `N#CC1(CCO)CCOC(C(F)(F)CN2CCNC(=O)c3oc4ccc(C(F)(F)F)cc4c32)C1` (centres unmarked) [Example 33], the inhibitory constant (Ki) was found to be 0.0793 nM.
As to `O=C1NCCN(CCC2CC(O)(CO)CCO2)c2c1oc1ccc(C(F)(F)F)cc21` (centres unmarked) [Example 4], the Ki was 0.442 nM.
Still for that read-out and setting: to `CS(=O)(=O)CC1COCC(CCN2CCNC(=O)c3oc4ccc(C(F)(F)F)cc4c32)O1` (racemic) [Example 136] belongs 16 nM.
The same measure, in the same setting: to `CC1(O)CCOC(C(F)(F)CN2CCNC(=O)c3oc4ccc(C(F)(F)F)cc4c32)C1` (centres unmarked) [Example 66, 1-(2,2-difluoro-2-(4-hydroxy-4-methyltetrahydro-2H-pyran-2-yl)ethyl)-9-(trifluoromethyl)-1,2,3,4-tetrahydro-5H-benzofuro[3,2-e][1,4]diazepin-5-one] belongs 0.0283 nM; to `O=C1NCCN(CCC2COCCO2)c2c1oc1c(F)cc(C(F)(F)F)cc21` (racemic) [Example 76], 0.399 nM; to `O=C1NCCN(CCC2CCC(F)(CO)CC2)c2c1oc1ccc(C(F)(F)F)cc21` (centres unmarked) [Example 150], 0.13 nM.
On the same count and under the same terms, to `N#CC1(CO)CCC(CCN2CCNC(=O)c3oc4ccc(C(F)(F)F)cc4c32)CC1` (centres unmarked) [Example 163] belongs 0.0445 nM; to `O=C1NCCN(CCC2CCC(c3ncn[nH]3)CC2)c2c1oc1ccc(C(F)(F)F)cc21` (centres unmarked) [Example 105], 0.607 nM.
As for `O=C1NCCN(CCC2CCC(O)(C(F)(F)CO)CC2)c2c1oc1ccc(C(F)(F)F)cc21` (single isomer, unassigned) [Example 119], the Ki came to 0.144 nM.

Staying with this experiment, now noted: read-out: hPim1 Ki; Ki converted from IC50; purified human Pim-1, Pim2tide substrate, ADP-Glo.
Take `O=C1NCCN(CCC2CCC(O)(CO)CC2)c2c1oc1ccc(C(F)(F)F)cc21` (centres unmarked) [Example 89]: the Ki was found to be 0.0329 nM.

What is called Ki is a measure of affinity in units of concentration, obtained from inhibition or displacement.
